In patent US11105747B2, “Spectroscopic methods to detect and characterize microorganisms” (Spectral Platforms, Inc., priority 2017, dated 2021):
In brackets after ≈: the same amount, converted by molar mass.

Test system: unknown pathogen
Assay: Antimicrobial susceptibility (MIC/MBC) from Raman slope and time to cloudiness versus antimicrobial concentration
Assay type: cell-based
Method: To measure the minimum inhibitory concentration, or to otherwise characterize the antimicrobial susceptibility of any unknown pathogen to a candidate antimicrobial: • (a) Incubate the unknown pathogen for about 3 hours in a rich media. This time period should suffice to increase the concentration of the causative pathogen by about >100×. […] Incubate this mixture for another 20 minutes, which allows for sufficient time for the 10 CFUs to interact with the candidate antimicrobial. • (d) Add the 7 mixtures to the test vials, and test. The number of free radicals present in the mixed sample is a function of the concentration of the antimicrobial, and so the final slope can be plotted against antimicrobial concentration to develop estimates for the MIC. This is illustrated in FIGS. 32A and 32B.
FIG. 32A depicts the measured slope as a function of antimicrobial agent (vancomycin) concentration. FIG. 32B depicts the time taken for the tested samples to become cloudy. Above 2 μg/m L, the samples remain clear for very long incubation periods (>96 hours). Thus, the Minimum Bactericidal Concentration MBC is about 2 μg/mL. Above 0.25 mg/mL, the time to cloudiness increases slightly. […] As illustrated in FIGS. 32A and 32B, the MIC corresponds to the concentration at which the signal decreases slightly. Further, the MBC (Minimum Bactericidal Concentration) corresponds to the concentration at which the signal increases again.

CN[C@H](CC(C)C)C(=O)N[C@H]1C(=O)N[C@@H](CC(N)=O)C(=O)N[C@H]2C(=O)N[C@H]3C(=O)N[C@H](C(=O)N[C@H](C(=O)O)c4cc(O)cc(O)c4-c4cc3ccc4O)[C@H](O)c3ccc(c(Cl)c3)Oc3cc2cc(c3O[C@@H]2O[C@H](CO)[C@@H](O)[C@H](O)[C@H]2O[C@H]2C[C@](C)(N)[C@H](O)[C@H](C)O2)Oc2ccc(cc2Cl)[C@H]1O [vancomycin]
time taken for the tested samples to become cloudy (samples remain clear) (above 2 μg/mL vancomycin): > 96 h
MBC (concentration above which samples remain clear, signal increases again, read-out: Minimum Bactericidal Concentration MBC): ~2 µg/mL (≈ 1.38 µM)
MIC (read-out: MIC (minimum inhibitory concentration)): ~250 µg/mL (≈ 173 µM)
